Experimental data reported in US9593108B2, “Compounds and methods for antiviral treatment” (PTC Therapeutics, Inc., priority 2009, dated 2017).

What was measured:
[1] = test system: HCV replicon RNA (GenBank Accession No. AJ242654); assay: HCV Replicon Assay (replicon RNA reduction and/or Fluc reporter signal); format: cell-based, Hepatitis C virus; conditions: Hepatitis C virus, 72 h, replicon-containing cells cultured with test compound for up to 3 days
Procedure, shortened: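 IC50 values mostly reflect the drop in replicon RNA, though Fluc reporter signal may also be used. Compound incubated with cells carrying the bicistronic replicon for as long as 3 days; interferon served as positive control.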

| SMILES | melting point | IC50 [1] |
| --- | --- | --- |
| C[C@H](NS(=O)(=O)c1ccc(-c2c(C#N)c3cc(OC(F)F)cnc3n2C2CCC2)cc1)C(F)(F)F [Cpd 198, 4-[3-cyano-1-cyclobutyl-5-(difluoromethoxy)-1H-pyrrolo[2,3-b]pyridin-2-yl]-N-[(2S)-1,1,1-trifluoropropan-2-yl]benzenesulfonamide] | 155 to 156 °C | 500 to 2000 nM |
| C[C@@H](NS(=O)(=O)c1ccc(-c2c(C#N)c3cc(OC(F)F)cnc3n2C2CCC2)cc1)C(F)(F)F [Cpd 199, 4-[3-cyano-1-cyclobutyl-5-(difluoromethoxy)-1H-pyrrolo[2,3-b]pyridin-2-yl]-N-[(2R)-1,1,1-trifluoropropan-2-yl]benzenesulfonamide] | 199 to 200 °C | < 500 nM |
| CC(C)(NS(=O)(=O)c1ccc(-c2c(C#N)c3cc(OC(F)F)cnc3n2C2CCC2)nc1)C(F)(F)F [Cpd 201, 6-[3-cyano-1-cyclobutyl-5-(difluoromethoxy)-1H-pyrrolo[2,3-b]pyridin-2-yl]-N-(1,1,1-trifluoro-2-methylpropan-2-yl)pyridine-3-sulfonamide] | 168 to 169 °C | < 500 nM |
| CCOc1cnc2c(c1)c(C#N)c(-c1ccc(S(=O)(=O)N[C@@H](C)C(F)(F)F)cn1)n2C1CCC1 [Cpd 202, 6-(3-cyano-1-cyclobutyl-5-ethoxy-1H-pyrrolo[2,3-b]pyridin-2-yl)-N-[(2S)-1,1,1-trifluoropropan-2-yl]pyridine-3-sulfonamide] | 181 to 182 °C | < 500 nM |
| CCOc1cnc2c(c1)c(C#N)c(-c1ccc(S(=O)(=O)N[C@H](C)C(F)(F)F)cn1)n2C1CCC1 [Cpd 203, 6-(3-cyano-1-cyclobutyl-5-ethoxy-1H-pyrrolo[2,3-b]pyridin-2-yl)-N-[(2R)-1,1,1-trifluoropropan-2-yl]pyridine-3-sulfonamide] | 180 to 181 °C | < 500 nM |
| CCCOc1cnc2c(c1)c(C#N)c(-c1ccc(S(=O)(=O)N[C@@H](C)C(F)(F)F)cn1)n2C1CCC1 [Cpd 204, 6-(3-cyano-1-cyclobutyl-5-propoxy-1H-pyrrolo[2,3-b]pyridin-2-yl)-N-[(2S)-1,1,1-trifluoropropan-2-yl]pyridine-3-sulfonamide] | 170 to 171 °C | < 500 nM |
| CCCOc1cnc2c(c1)c(C#N)c(-c1ccc(S(=O)(=O)N[C@H](C)C(F)(F)F)cn1)n2C1CCC1 [Cpd 205, 6-(3-cyano-1-cyclobutyl-5-propoxy-1H-pyrrolo[2,3-b]pyridin-2-yl)-N-[(2R)-1,1,1-trifluoropropan-2-yl]pyridine-3-sulfonamide] | 169 to 170 °C | < 500 nM |
| Cc1cnc2c(C#N)c(-c3ccc(S(=O)(=O)N[C@@H](C)C(F)(F)F)cn3)n(C3CCC3)c2c1 [Cpd 206, 6-(3-cyano-1-cyclobutyl-6-methyl-1H-pyrrolo[3,2-b]pyridin-2-yl)-N-[(2S)-1,1,1-trifluoropropan-2-yl]pyridine-3-sulfonamide] | 217 to 218 °C | 500 to 2000 nM |
| Cc1cnc2c(C#N)c(-c3ccc(S(=O)(=O)N[C@H](C)C(F)(F)F)cn3)n(C3CCC3)c2c1 [Cpd 207, 6-(3-cyano-1-cyclobutyl-6-methyl-1H-pyrrolo[3,2-b]pyridin-2-yl)-N-[(2R)-1,1,1-trifluoropropan-2-yl]pyridine-3-sulfonamide] | 207 to 209 °C | 500 to 2000 nM |
| Cc1cnc2c(C#N)c(-c3ccc(S(=O)(=O)NC4(C(F)(F)F)CC4)cn3)n(C3CCC3)c2c1 [Cpd 208, 6-(3-cyano-1-cyclobutyl-6-methyl-1H-pyrrolo[3,2-b]pyridin-2-yl)-N-[1-(trifluoromethyl)cyclopropyl]pyridine-3-sulfonamide] | 248 to 249 °C | < 500 nM |
| Cc1cnc2c(C#N)c(-c3ccc(S(=O)(=O)NC(C)(C)C(F)(F)F)cn3)n(C3CCC3)c2c1 [Cpd 209, 6-(3-cyano-1-cyclobutyl-6-methyl-1H-pyrrolo[3,2-b]pyridin-2-yl)-N-(1,1,1-trifluoro-2-methylpropan-2-yl)pyridine-3-sulfonamide] | 238 to 240 °C | < 500 nM |
| Cc1cnc2c(C#N)c(-c3ccc(S(=O)(=O)NC4(C)CC4)cn3)n(C3CCC3)c2c1 [Cpd 210, 6-(3-cyano-1-cyclobutyl-6-methyl-1H-pyrrolo[3,2-b]pyridin-2-yl)-N-(1-methylcyclopropyl)pyridine-3-sulfonamide] | 187 to 188 °C | < 500 nM |
| Cc1cnc2c(C#N)c(-c3ccc(S(=O)(=O)NC(C)(C)C)cn3)n(C3CCC3)c2c1 [Cpd 211, N-tert-butyl-6-(3-cyano-1-cyclobutyl-6-methyl-1H-pyrrolo[3,2-b]pyridin-2-yl)pyridine-3-sulfonamide] | 227 to 229 °C | < 500 nM |
| Cc1cnc2c(C#N)c(-c3ccc(S(=O)(=O)NC(CF)CF)cn3)n(C3CCC3)c2c1 [Cpd 212, 6-(3-cyano-1-cyclobutyl-6-methyl-1H-pyrrolo[3,2-b]pyridin-2-yl)-N-(1,3-difluoropropan-2-yl)pyridine-3-sulfonamide] | 219 to 221 °C | < 500 nM |
| Cc1cnc2c(C#N)c(-c3ncc(S(=O)(=O)NC(CF)CF)cn3)n(C3CCC3)c2c1 [Cpd 213, 2-(3-cyano-1-cyclobutyl-6-methyl-1H-pyrrolo[3,2-b]pyridin-2-yl)-N-(1,3-difluoropropan-2-yl)pyrimidine-5-sulfonamide] | 269 to 271 °C | < 500 nM |
| Cc1cnc2c(C#N)c(-c3ncc(S(=O)(=O)NC(C)C)cn3)n(C3CCC3)c2c1 [Cpd 214, 2-(3-cyano-1-cyclobutyl-6-methyl-1H-pyrrolo[3,2-b]pyridin-2-yl)-N-(propan-2-yl)pyrimidine-5-sulfonamide] | 278 to 280 °C | < 500 nM |
| Cc1cnc2c(C#N)c(-c3ncc(S(=O)(=O)N[C@@H](C)C(F)(F)F)cn3)n(C3CCC3)c2c1 [Cpd 215, 2-(3-cyano-1-cyclobutyl-6-methyl-1H-pyrrolo[3,2-b]pyridin-2-yl)-N-[(2S)-1,1,1-trifluoropropan-2-yl]pyrimidine-5-sulfonamide] | 268 to 269 °C | 500 to 2000 nM |
| Cc1cnc2c(C#N)c(-c3ccc(S(=O)(=O)N[C@@H](C)C(F)(F)F)cc3)n(C3CCC3)c2c1 [Cpd 216, 4-(3-cyano-1-cyclobutyl-6-methyl-1H-pyrrolo[3,2-b]pyridin-2-yl)-N-[(2S)-1,1,1-trifluoropropan-2-yl]benzenesulfonamide] | 245 to 246 °C | 500 to 2000 nM |
| Cc1cnc2c(C#N)c(-c3ccc(S(=O)(=O)N[C@H](C)C(F)(F)F)cc3)n(C3CCC3)c2c1 [Cpd 217, 4-(3-cyano-1-cyclobutyl-6-methyl-1H-pyrrolo[3,2-b]pyridin-2-yl)-N-[(2R)-1,1,1-trifluoropropan-2-yl]benzenesulfonamide] | 252 to 253 °C | 2000 to 5000 nM |
| CC(C)Oc1cnc2c(c1)c(C#N)c(-c1ccc(S(=O)(=O)N[C@@H](C)C(F)(F)F)cn1)n2C1CCC1 [Cpd 218, 6-[3-cyano-1-cyclobutyl-5-(propan-2-yloxy)-1H-pyrrolo[2,3-b]pyridin-2-yl]-N-[(2S)-1,1,1-trifluoropropan-2-yl]pyridine-3-sulfonamide] | 168 to 169 °C | < 500 nM |
| CCc1cc2c(C#N)c(-c3ccc(S(=O)(=O)N[C@@H](C)C(F)(F)F)cc3)n(C3CCC3)c2cn1 [Cpd 219, 4-(3-cyano-1-cyclobutyl-5-ethyl-1H-pyrrolo[2,3-c]pyridin-2-yl)-N-[(2S)-1,1,1-trifluoropropan-2-yl]benzenesulfonamide] | 200 to 203 °C | < 500 nM |
| CCc1cc2c(C#N)c(-c3ccc(NS(=O)(=O)C(C)C)cc3)n(C3CCC3)c2cn1 [Cpd 220, N-[4-(3-cyano-1-cyclobutyl-5-ethyl-1H-pyrrolo[2,3-c]pyridin-2-yl)phenyl]propane-2-sulfonamide] | 160 to 165 °C | < 500 nM |
| C[C@H](NS(=O)(=O)c1ccc(-c2c(C#N)c3cccnc3n2C2CCCC2)nc1)C(F)(F)F [Cpd 221, 6-(3-cyano-1-cyclopentyl-1H-pyrrolo[2,3-b]pyridin-2-yl)-N-[(2S)-1,1,1-trifluoropropan-2-yl]pyridine-3-sulfonamide] | 157 to 159 °C | < 500 nM |
| C[C@H](NS(=O)(=O)c1ccc(-c2c(C#N)c3cc(C4CC4)ncc3n2C2CCC2)nc1)C(F)(F)F [Cpd 223, 6-(3-cyano-1-cyclobutyl-5-cyclopropyl-1H-pyrrolo[2,3-c]pyridin-2-yl)-N-[(2S)-1,1,1-trifluoropropan-2-yl]pyridine-3-sulfonamide] | 200 to 205 °C | 500 to 2000 nM |
| C[C@H](NS(=O)(=O)c1ccc(-c2c(C#N)c3cc(C4CC4)ncc3n2C2CCC2)cc1)C(F)(F)F [Cpd 224, 4-(3-cyano-1-cyclobutyl-5-cyclopropyl-1H-pyrrolo[2,3-c]pyridin-2-yl)-N-[(2S)-1,1,1-trifluoropropan-2-yl]benzenesulfonamide] | 190 to 195 °C | < 500 nM |
| COc1cnc2c(c1)c(C(N)=O)c(-c1ccc(S(=O)(=O)N[C@@H](C)C(F)(F)F)cn1)n2C1CCC1 [Cpd 226, 1-cyclobutyl-5-methoxy-2-(5-{[(2S)-1,1,1-trifluoropropan-2-yl]sulfamoyl}pyridin-2-yl)-1H-pyrrolo[2,3-b]pyridine-3-carboxamide] | 233 to 235 °C | < 500 nM |
| C[C@H](NS(=O)(=O)c1ccc(-c2c(C#N)c3cc(C(F)(F)F)cnc3n2C2CCC2)nc1)C(F)(F)F [Cpd 227, 6-[3-cyano-1-cyclobutyl-5-(trifluoromethyl)-1H-pyrrolo[2,3-b]pyridin-2-yl]-N-[(2S)-1,1,1-trifluoropropan-2-yl]pyridine-3-sulfonamide] | 183 to 185 °C | < 500 nM |
